Laboratory results as given in publication PMC5082338, “Different Culture Metabolites of the Red Sea Fungus Fusarium equiseti Optimize the Inhibition of Hepatitis C Virus NS3/4A Protease (HCV PR)” (Marine Drugs, 2016).
Where “and” joins values, the source holds several entries; their conditions need not be identical. Equal entries are not always repeated. Where two headings read alike, the source gives them in different places. Peptide text beside a SMILES is read from it.

Assays:
[1] = system: Staphylococcus aureus; experiment: Antimicrobial activity, inhibition zone; assay type: cell-based; conditions: for zone of inhibition: read-out: Inhibition zone, Staphylococcus aureus
Description: Table 1 Antimicrobial potential of the culture extracts and isolated compounds from F. equiseti. | column: Gram-Positive Bacteria / Staphylococcus aureus

[2] = system: Bacillus megaterium; experiment: Antimicrobial activity, inhibition zone; assay type: cell-based; conditions: Priestia megaterium; for zone of inhibition: read-out: Inhibition zone, Bacillus megaterium
Description: Table 1 Antimicrobial potential of the culture extracts and isolated compounds from F. equiseti. | column: Gram-Positive Bacteria / Bacillus megaterium

[3] = system: Bacillus subtilis; experiment: Antimicrobial activity, inhibition zone; assay type: cell-based
[4] = system: Candida albicans; experiment: Antimicrobial activity, inhibition zone; assay type: cell-based; conditions: oxytetracycline control 30 μg
[5] = biological target: HCV NS3/4A protease (Hepatitis C virus genotype 1b (strain HC-J4), UniProt O92972); experiment: HCV protease inhibitory activity (SensoLyte 520 HCV protease assay kit, fluorimetric); assay type: biochemical; conditions: for Inhibition of HCV PR (in words): compared to other constituents; for IC50: recHCV PR, 37 °C, 30 min
Chain of HCV NS3/4A protease (O92972 1027-1207, other chains not shown): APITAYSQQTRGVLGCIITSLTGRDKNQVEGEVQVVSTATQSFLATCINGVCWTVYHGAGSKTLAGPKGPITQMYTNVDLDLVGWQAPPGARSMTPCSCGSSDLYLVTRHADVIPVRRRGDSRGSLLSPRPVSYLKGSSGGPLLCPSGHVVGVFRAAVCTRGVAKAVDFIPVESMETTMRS
Description: HCV NS3 is considered as a serine protease, its active site contains serine 139 amino acid residues, which attack the substrate by forming a reversible covalent bond with its amino acid residues. To be activated, the HCV NS3 has to be coupled with an activating protein named (4A), and is therefore given the name HCV NS3/4A, which is active only in its heterodimer form. The culture extracts of the endophytic fungus F. equiseti and their isolated compounds were screened for inhibition of HCV protease using the hepatitis virus C NS3 protease inhibitor 2 as a positive control. Moreover, the selectivity of the active metabolites toward HCV NS3/4A protease (viral protease) and not human serine proteases such as trypsin and chymotrypsin has been confirmed through investigating the inhibitory activity of these extracts and/or their isolated chemical constituents on human recombinant Trypsin.
(§1) Sensolyte™ 520 HCV Protease assay kit Fluorimetric (cat#AS-71145), HCV NS3/4A protease and Sensolyte™, Green protease Assay Kit Fluorimetric (cat#AS-71124), and Hepatitis Virus C NS3 protease inhibitor 2 (cat#AS-25346) were purchased from AnaSpec Inc., San Jose, CA, USA. Chymotrypsin inhibitor (Soybean trypsin) was purchased from Sigma Aldrich Co. (St. Louis, MO, USA), and Becton Dickinson Falcon™ (Tokyo, Japan). Microtest 384-well 120 μL black assay plates, no lid, non-sterile, were purchased from Becton Dickinson Inc, Franklin Lakes, NJ, USA. Culture media: Czapek agar, bacteriological peptone, malt extract, yeast extract powder, nutrient agar and potato dextrose broth were procured from Lab M, Bury, UK; Glucose, (Acros Organics, Geel, Belgium), K2HPO4 (Laboratory Reagent, Mumbai, India), MgSO4 (Oxford Laboratory Reagent, Mumbai, India), agar (Sisco Research Laboratories Pvt. Ltd., Mumbai, India).
Samples of 2 μL of culture broth fungus extracts and isolated compounds dissolved in dimethyl sulfoxide (DMSO) were placed in each well of a 384-well microplate, then 8 μL of recHCV PR (0.5 μg/mL) were added, and the plate was briefly agitated. Finally, 10 μL of the freshly prepared substrate [Ac-Asp-Glu-Dap (QXLTM520)-Glu-Glu-Abu-COO-Ala-Ser-Cys(5-FAMsp)-NH2] were added with sequential rotational shaking. The reaction mixture was incubated at 37 °C for 30 min. The fluorimetric analyses were performed on an automated TECAN GENios plate reader (Männedorf, Switzerland) with excitation and emission wavelengths at 485 and 520 nm, respectively. Each sample was tested in triplicate. HCV PR inhibition (%) was calculated using the following equation: % Inhibition = (Fsubstrate − Ftestsample) × 100/Fsubstrate where Fsubstrate is the fluorescence of the enzyme and substrate only, and Ftestsample is the fluorescence of the assay mixture with the added sample.

[6] = biological target: T1, human recombinant Trypsin (Homo sapiens, UniProt P07477); experiment: Green protease assay (trypsin inhibitory activity); assay type: biochemical; conditions: 37 °C, 30 min
T1 construct: purchased AnaSpec Inc., San Jose, CA, USA AS-71124 (Green protease Assay Kit; no catalogue number for trypsin itself)
Method: as §1, with “Chymotrypsin” for “Sensolyte™ 520 HCV Protease assay kit Fluorimetric (cat#AS-71145), HCV NS3/4A protease and Sensolyte™, Green protease Assay Kit Fluorimetric (cat#AS-71124), and Hepatitis Virus C NS3 protease inhibitor 2 (cat#AS-25346) were purchased from AnaSpec Inc., San Jose, CA, USA. Chymotrypsin”
Then 17.5 μL of assay buffer and 2.5 μL of trypsin (0.1 U/μL) were added and the plate was briefly agitated. […] The positive control was the soybean trypsin-chymotrypsin inhibitor. Inhibition was calculated as above for HCV PR assay.

[7] = Bacillus subtilis, oxytetracycline control 30 μg
[8] = read-out: IC50 HCV Protease Inhibitory Activity

CN(C)[C@@H]1C(O)=C(C(N)=O)C(=O)[C@@]2(O)C(O)=C3C(=O)c4c(O)cccc4[C@@](C)(O)[C@H]3[C@H](O)[C@@H]12 [Oxytetracycline, reference compound] showed a zone of inhibition ([1]; oxytetracycline control 30 μg) of 17 mm, a zone of inhibition ([2]; oxytetracycline control 30 μg) of 20 mm and a zone of inhibition [3, 7] of 18 mm.

With CC(C)CC1NC(=O)C(C)NC1=O [compound 1, cyclo-L-Ala-L-Leu] the zone of inhibition at 30 µg/disc ([2]; oxytetracycline control 30 μg) was 12 mm, the zone of inhibition at 30 µg/disc [4] was 13 mm and the “Inhibition of HCV PR (in words)” value [5] was “inactive”. For the same molecule, the IC50 [5, 8] was 58.3 ± 3.51 µM.

With CC(C)[C@@H]1NC(=O)[C@@H]2CCCN2C1=O [compound 2, cyclo(L-Pro-L-Val)] the zone of inhibition ([2]; oxytetracycline control 30 μg) was 11 mm, the zone of inhibition [4] was 9 mm and the IC50 [6] was 54.2 ± 1.88 µM. For the same molecule, the “Sensitivity of B. subtilis (in words)” value [3] was “highly sensitive”, the zone of inhibition [3, 7] was 18 mm and the IC50 [5, 8] was 23.2 µM and 23.3 µM.

For Cc1c[nH]c(=O)[nH]c1=O [compound 4, thymine], the “Inhibition of HCV PR (in words)” value [5] was “inactive” and the IC50 [5, 8] was 51.8 ± 2.49 µM.

For CC(C)CC1NC(=O)C2CCCN2C(=O)C(Cc2ccccc2)NC(=O)C2CCCN2C1=O (stereo not drawn) [compound 5, cyclo[Phenylalanyl-Pro-Leu-Pro]] (cyclo(FPLP); configuration not given here), the zone of inhibition ([1]; oxytetracycline control 30 μg) was 9 mm, the zone of inhibition ([2]; oxytetracycline control 30 μg) was 10 mm and the zone of inhibition [4] was 12 mm. For the same molecule, the IC50 [6] was 226 ± 4.26 µM and the IC50 [5, 8] was 29.4 µM and 29.5 µM.

With CC(C=CC=C(C)C(O)C(C)C1CC(O)C(C)=CC=CC(C)C2CC(CC=CC(=O)O1)CC(=O)O2)=Cc1coc(C)n1 (stereo not shown) [compound 6, 17-demethyl-2,11-dideoxy-rhizoxin] the zone of inhibition [1] was 12 mm, the zone of inhibition [2] was 8 mm and the zone of inhibition [4] was 19 mm. For the same molecule, the IC50 [6] was 145 ± 3.66 µM and the IC50 ([5]; IC50 HCV Protease Inhibitory Activity) was 34.4 µM.

In the case of CC(C)[C@@H](C)CC[C@@H](C)C1CCC2C3=CC=C4C[C@@H](O)CC[C@]4(C)C3CC[C@@]21C (stereo partly drawn) [compound 8, ergostra-5,7-dien-3β-ol], the “Inhibition of HCV PR (in words)” value [5] is reported as “inactive” and the IC50 [5, 8] is reported as 77.1 ± 4.55 µM.

In the case of CC[C@@H](CC[C@@H](C)C1CCC2C3CC=C4C[C@@H](O[C@@H]5O[C@H](CO)[C@@H](O)[C@H](O)[C@H]5O)CC[C@]4(C)C3CC[C@@]21C)C(C)C (stereo partly drawn) [compound 9, β-sitosterol 3-O-β-glucoside], the zone of inhibition ([1]; oxytetracycline control 30 μg) is reported as 9 mm, the zone of inhibition ([2]; oxytetracycline control 30 μg) is reported as 14 mm and the zone of inhibition [4] is reported as 10 mm. The zone of inhibition [3, 7] was 11 mm, the “Inhibition of HCV PR (in words)” value [5] was “inactive” and the IC50 [5, 8] was 76.6 ± 3.78 µM.

In the case of CC1=C(O)C(=O)C(Cl)=C(O)C1=O [compound 11, 5-Chloro-3,6-dihydroxy-2-methyl-1,4-benzoquinone], the IC50 [6] is reported as 294.8 ± 2.87 µM and the IC50 [5, 8] is reported as 35.1 µM.

With COc1cc(O)c2c(=O)c3c(C)cc(O)cc3oc2c1 [compound 12, griseoxanthone C] the zone of inhibition at 30 µg/disc ([2]; oxytetracycline control 30 μg) was 10 mm, the IC50 [6] was 51.3 µM and the zone of inhibition at 30 µg/disc [3, 7] was 13 mm. The IC50 [5, 8] was 19.8 µM and 19.9 µM.

Work on Cc1cc(O)c2c(c1)C(=O)c1cccc(O)c1C2=O [compound 13, chrysophanol] yielded a zone of inhibition ([1]; oxytetracycline control 30 μg) of 15 mm, a zone of inhibition ([2]; oxytetracycline control 30 μg) of 10 mm and a zone of inhibition [4] of 11 mm. For the same molecule, the IC50 [5, 8] was > 1000 µM.

O=C1c2cc(O)cc(O)c2C(=O)c2c(O)cc(CO)cc21 [compound 14, ω-hydroxyemodin] was tested, and the zone of inhibition ([1]; oxytetracycline control 30 μg) was 12 mm, the zone of inhibition ([2]; oxytetracycline control 30 μg) was 17 mm and the zone of inhibition [4] was 18 mm. For the same molecule, the IC50 [6] was 48.5 µM, the zone of inhibition [3, 7] was 9 mm and the IC50 [5, 8] was 10.7 µM.

With O=C1N[C@H](Cc2ccc(O)cc2)C(=O)N2CCC[C@H]12 [compound 15, cyclo(L-Tyr-L-Pro)] the zone of inhibition at 30 µg/disc ([1]; oxytetracycline control 30 μg) was 11 mm, the zone of inhibition at 30 µg/disc ([2]; oxytetracycline control 30 μg) was 8 mm and the zone of inhibition at 30 µg/disc [4] was 13 mm. The IC50 [6] was 37.9 ± 3.8 µM and the IC50 [5, 8] was 18.2 ± 1.7 µM.

OCc1ccc(-c2nccc3c2[nH]c2ccccc23)o1 [compound 16, perlolyrin] gave a zone of inhibition ([1]; oxytetracycline control 30 μg) of 14 mm, a zone of inhibition ([2]; oxytetracycline control 30 μg) of 9 mm and a zone of inhibition [4] of 10 mm. For the same molecule, the IC50 [6] was > 1000 µM, the zone of inhibition [3, 7] was 8 mm and the IC50 [5, 8] was 37.8 µM and 37.9 µM.

Molecule Nc1ncnc2c1ncn2[C@@H]1O[C@H](CO)C[C@H]1O [compound 17, cordycepin] has a zone of inhibition ([1]; oxytetracycline control 30 μg) of 16 mm, a zone of inhibition ([2]; oxytetracycline control 30 μg) of 11 mm and a zone of inhibition [4] of 14 mm. For the same molecule, the IC50 [6] was > 1000 µM, the zone of inhibition [3, 7] was 9 mm and the IC50 [5, 8] was 22.3 µM and 22.4 µM.

Molecule Nc1ncnc2c1ncn2C1OC(CO)C(O)C1O (stereo not shown) [compound 18, ara-A] has a zone of inhibition ([1]; oxytetracycline control 30 μg) of 10 mm, a zone of inhibition ([2]; oxytetracycline control 30 μg) of 12 mm and an IC50 [6] of 138 ± 2.49 µM. It also gave a zone of inhibition [3, 7] of 12 mm and an IC50 [5, 8] of 24.5 µM.

CCO[C@@H]1O[C@H](CO)[C@@H](O)[C@H](O)[C@H]1O [compound 19, ethyl-O-β-glucoside] was tested, and the IC50 [5, 8] was > 1000 µM.

B1: T-I: soybean trypsin-chymotrypsin inhibitor (positive control for trypsin) (protein)
chain: DDESSKPCCDQCACTKSNPPQCRCSDMRLNSCHSACKSCICALSYPAQCFCVDITDFCYEPCKPSEDDKEN
modifications: mature limits and check
Work on B1 yielded an IC50 [6] of 0.5 µM.
